For assay [1], the target named is T1, human M1 receptor (hCHRM1) (Homo sapiens, UniProt P11229).
T1 construct: expressed in transfected cells
T1 sequence (P11229 1-460): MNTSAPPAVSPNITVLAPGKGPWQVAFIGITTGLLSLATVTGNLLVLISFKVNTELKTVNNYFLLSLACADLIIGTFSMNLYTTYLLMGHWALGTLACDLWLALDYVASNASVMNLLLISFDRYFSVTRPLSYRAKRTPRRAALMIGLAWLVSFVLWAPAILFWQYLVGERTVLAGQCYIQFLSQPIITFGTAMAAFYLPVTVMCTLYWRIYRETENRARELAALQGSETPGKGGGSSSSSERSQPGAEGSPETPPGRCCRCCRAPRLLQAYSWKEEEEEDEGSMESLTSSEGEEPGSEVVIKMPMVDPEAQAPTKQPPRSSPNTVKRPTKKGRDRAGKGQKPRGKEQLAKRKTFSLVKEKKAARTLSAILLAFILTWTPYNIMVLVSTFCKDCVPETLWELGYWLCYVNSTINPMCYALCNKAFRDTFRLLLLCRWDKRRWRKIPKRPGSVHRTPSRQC
In words: Measurement of M1 receptor positive allosteric modulator (M1PAM) activity, calcium fluorescence (FLIPRtetra) with acetylcholine at EC20. Format: cell-based. Particulars: for activity (%) at 10 μM: 10 μM test compound, 100% = acetylcholine 1 μM, 0% = DMSO, acetylcholine at EC20; for EC50: inflection point of concentration-dependent curve, CHO-K1 cells expressing hCHRM1, acetylcholine at EC20 (final 0.6-0.8 nM), read-out: IP value. Summed up:
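CHO-K1 cells stably expressing hCHRM1, Fluo-4 AM loaded; compound added with acetylcholine at EC20 (final 0.6-0.8 nM), fluorescence read 1 min. Activity normalised to 1 μM acetylcholine (100%) and DMSO (0%); IP values taken as inflection point of the concentration-response curve.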

In assay [2] the test system is IP1 production in hippocampi. As to the kind of experiment: Measurement of myo-inositol 1 phosphate (IP1) in hippocampus after oral administration. Format: in vivo, male Long-Evans rats. The following applies: 10 mg/kg oral, rat hippocampus, IP1/protein ratio, lithium chloride s.c. From the text:
Animals used were male Long-Evans rats. They were used after acclimation for at least 1 week. Test compounds were suspended in 0.5% aqueous methylcellulose solution, and the suspension was orally administered to the rats. At a certain period of time after the oral administration, the solution prepared by dissolving lithium chloride in saline was subcutaneously administered into the rats. At a certain period of time after the subcutaneously administration, their bilateral hippocampi were isolated from the rats, and the wet weight thereof was measured. The hippocampi were homogenized with HEPES buffer, followed by centrifugation. The IP1 and protein concentrations in the supernatant were measured by IP-One HTRF assay kit (Cisbio Bioassays) and BCA protein assay kit (Thermo Scientific), respectively. The level of the IP1 production was expressed as the ratio of the concentration of IP1 to that of protein. The increase rate of the IP1 production was shown as a relative value when Vehicle administration group as 100%.

The test system of assay [3] is Scopolamine-induced memory deficits models. As to the kind of experiment: Novel object recognition test. The class given is in vivo, male Long-Evans rats. The following applies: scopolamine 0.1 mg/kg s.c., mean±standard error. As for the experimental part:
Novel object recognition test is comprised of two trials called the acquisition and the retention trials. Scopolamine-induced memory deficits models were used for the test, and animals used were male Long-Evans rats (7-week-old). On the day before the test, for acclimation, the rats were allowed to freely move about the test box (40×40×50 cm) for 10 minutes. On the test day, the rats were acclimated to the test room for about 1 hr prior to the test. The test compounds were orally administered to the rats in a single dose 2 hr before the acquisition trial. For induction of learning and memory deficits, scopolamine (0.1 mg/kg) was subcutaneously administered into the rats 30 min before the acquisition trial. For the acquisition trial, two identical objects (A1, A2) were placed in the test box. The rats were put in the test box for 3 min, and the duration exploring each object was measured. The retention trial was performed 4 hr after the acquisition trial. For the retention trial, the familiar object (A3) used for the acquisition trial and the novel object (B) different shape from A3 were placed in the test box. The rats were put in the test box for 3 min. The duration exploring each object in the acquisition trial and the retention trial, and the exploration rate (%) of novel object was calculated. The exploration rate (%) of novel object was expressed as (the duration exploring the novel object)/[(the duration exploring the novel object)+(the duration exploring the familiar object)]×100(%) at mean±standard error.

`COc1ccc(Cc2cc3c(c(C)c2C)CN([C@H]2COCC[C@@H]2O)C3=O)cc1` [Example 18, 2-[(3S,4S)-4-hydroxytetrahydro-2H-pyran-3-yl]-6-(4-methoxybenzyl)-4,5-dimethyl-2,3-dihydro-1H-isoindol-1-one]: in assay [1], the “activity (%) at 10 μM” value was found to be 88% and the EC50 was found to be 10 nM. In addition, the “increase rate at 10 mg/kg (% of Vehicle)” value in assay [2] was 40 % of Vehicle. Further, the “exploration rate (%) of novel object” value in assay [3] (3 mg/kg oral 2 hr before acquisition trial, control 63.35±1.59%, solvent-scopolamine 52.08±2.47%) turned out to be 59.11±3.87%.
For `Cc1c(Cc2ccc(-n3cccn3)cc2)cc2c(c1F)CN([C@H]1COCC[C@@H]1O)C2=O` [Example 20, 4-fluoro-2-[(3S,4S)-4-hydroxytetrahydro-2H-pyran-3-yl]-5-methyl-6-[4-(1H-pyrazol-1-yl)benzyl]-2,3-dihydro-1H-isoindol-1-one], in assay [1], the “activity (%) at 10 μM” value is listed as 109% and the EC50 worked out at 5.5 nM. In addition, the “increase rate at 10 mg/kg (% of Vehicle)” value in assay [2] is on record as 108 % of Vehicle. The “exploration rate (%) of novel object” value in assay [3] (3 mg/kg oral 2 hr before acquisition trial, control 66.4±2.3%, solvent-scopolamine 50.4±2.4%) came to 61.2±3.1%.
Regarding `Cc1ccc(Cc2cc3c(c(C)c2C)CN([C@H]2CCCC[C@@H]2O)C3=O)cn1` [Example 25, 2-((1S,2S)-2-hydroxycyclohexyl)-4,5-dimethyl-6-((6-methylpyridin-3-yl)methyl)isoindolin-1-one], in assay [1], the “activity (%) at 10 μM” value was found to be 90% and the EC50 was 10 nM. Further, the “increase rate at 10 mg/kg (% of Vehicle)” value in assay [2] was 32 % of Vehicle. Besides, in assay [3] (10 mg/kg oral 2 hr before acquisition trial, control 62.37±3.24%, solvent-scopolamine 48.39±2.01%), the “exploration rate (%) of novel object” value is listed as 57.55±5.03%.
Turning to `COc1ccc(Cc2cc3c(cc2C)CN([C@H]2COCC[C@@H]2O)C3=O)cc1` [Example 164, 2-[(3S,4S)-4-hydroxytetrahydro-2H-pyran-3-yl]-6-(4-methoxybenzyl)-5-methyl-2,3-dihydro-1H-isoindol-1-one], in assay [1], the “activity (%) at 10 μM” value is 102% and the EC50 was 62 nM.
The corresponding values for `COc1ccc(Cc2cc3c(cc2C)CN([C@H]2CCCC[C@@H]2O)C3=O)cc1` [Example 167, 2-((1S,2S)-2-hydroxycyclohexyl)-6-(4-methoxybenzyl)-5-methylisoindolin-1-one] are 95% and 30 nM.

Source of the values: patent US9315458B2, “Nitrogen-containing heterocyclic compound” (Takeda Pharmaceutical Company Limited, priority 2014, dated 2016).
